Structures can show the parent of a compound that is named as a salt.
Legend:
[1] = Evaluation of drug sorption (drug residual rate); assay type: physicochemical; details: 10 μmol/L drug solution, 0.5 ml per well, 23° C., 2 days; average of three wells
Description: Thereafter, the drug solutions were recovered. The concentrations of the recovered drug solutions were measured by a fluorescence analysis method or LC/MS. The drug residual rate, which was the concentration of the measured recovered drug solution with respect to the concentration of the drug solution before added to the vessel, was calculated. The average value of the drug residual rate in three wells was given. For the drugs 1 to 3 for evaluation, concentration analysis was performed by a fluorescence analysis method.

[2] = Evaluation of drug sorption (drug residual rate); assay type: physicochemical; details: 10 μmol/L drug solution, 0.5 ml per well, 23° C., 2 days; average of three wells; remark: listed apart in the source
Description: Thereafter, the drug solutions were recovered. The concentrations of the recovered drug solutions were measured by a fluorescence analysis method or LC/MS. The drug residual rate, which was the concentration of the measured recovered drug solution with respect to the concentration of the drug solution before added to the vessel, was calculated. The average value of the drug residual rate in three wells was given. For the drugs 1 to 3 for evaluation, concentration analysis was performed by a fluorescence analysis method. For the drugs 4 to 8 for evaluation, concentration analysis was performed by LC/MS. <Fluorescence Analysis Conditions> • Evaluation apparatus: FP-6600 (spectrofluorometer, manufactured by JASCO Corporation) • Used cell: Micro cell made of quartz • Bandwidth: excitation side: 5 nm, fluorescence side: 6 nm • Sensitivity (PMT voltage): 400 V • Excitation wavelength: rhodamine B 555 nm <LC/MS Conditions> • Apparatus: Acquity UPLC I-class system/TQ-S micro(water) • Ionization method: electrospray ionization (ESI), positive and negative ion detection A drug sorption test was performed on the 24-well TCPS culture vessel (manufactured by Corning Incorporated, made of polystyrene (PS)) used in Comparative Example 4 and the 24-well PDMS culture vessel (product name: […] (trademark) model number: […]

Compound	drug residual rate, 4-methyl-1-pentene Polymer Vessel (Example 11) [1]	drug residual rate, PDMS Vessel (Comparative Example 8) [2]	drug residual rate, PS Vessel (Comparative Example 7) [2]
rhodamine 123	99%	58%	79%
Cc1oncc1C(=O)Nc1ccc(C(F)(F)F)cc1 [Leflunomide, leflunomide]	68%	2%	70%
CCN(CC)c1ccc2c(-c3ccccc3C(=O)O)c3ccc(=[N+](CC)CC)cc-3oc2c1.[Cl-] [Rhodamine B, rhodamine B]	98%	2%	90%
Clc1ccccc1CN1CCc2sccc2C1 [Ticlopidine Hydrochloride, ticlopidine hydrochloride]	64%	1%	67%
CC(C)NCC(O)c1ccc(O)c(O)c1 (stereo not drawn) [Isoproterenol Hydrochloride, isoproterenol hydrochloride]	63%	1%	65%

From patent US11254904B2, “Culture material and use thereof” (MITSUI CHEMICALS, INC., priority 2019, dated 2022)
